According to patent US6872834B2, “Phenyl-substituted indoles and indazoles” (Ortho-McNeil Pharmaceutical, Inc., priority 2000, dated 2005):

molecular target: T1, histamine H3 receptor (Homo sapiens, UniProt Q9Y5N1); assay: [3H]-N-methylhistamine binding; details: membranes from histamine H3 receptor-expressing SK-N-MC cells; 0.8 nM [3H]-N-methylhistamine; 45 minutes at 25° C.
T1 construct: expressed in transfected cells; membranes
Experimental: 1(A) Transfection of Cells with Human Histamine Receptor
A 10 cm tissue culture dish with a confluent monolayer of SK-N-MC cells was split two days prior to transfection. Using sterile technique the media was removed and the cells were detached from the dish by the addition of trypsin. One fifth of the cells were then placed onto a new 10 cm dish. Cells were grown in a 37° C. incubator with 5% CO2 in Minimal Essential Media Eagle with 10% Fetal Bovine Serum. After two days cells were approximately 80% confluent. These were removed from the dish with trypsin and pelleted in a clinical centrifuge. […] One μg supercoiled H3 receptor cDNA was added to the cells and mixed. The voltage for the electroporation was set at 0.25 kV, the capacitance is set at 960 μF.
After electroporation the cells were diluted into 10 mL complete media and plated onto four 10 cm dishes. Due to the variability in the efficiency of electroporation, four different concentrations of cells were plated. The ratios used were: 1:20, 1:10, and 1:5, with the remainder of the cells being added to the fourth dish. The cells were allowed to recover for 24 hours before adding the selection media (complete media with 600 μg/ml G418). After 10 days dishes were analyzed for surviving colonies of cells. Dishes with well-isolated colonies were used. Cells from individual colonies were isolated and tested. SK-N-MC cells were used because they give efficient coupling for inhibition of adenylate cyclase. The clones that gave the most robust inhibition of adenylate cyclase in response to histamine were used for further study.
1(B) [3H]-N-methylhistamine Binding
Cell pellets from histamine H3 receptor-expressing SK-N-MC cells were homogenized in 20 mM TrisHCl/0.5 mM EDTA. Supernatants from a 800 g spin were collected, reccentrifuged at 30,000 g for 30 minutes. Pellets were rehomogenized in 50 mM Tris/5 mM EDTA (pH 7.4). Membranes were incubated with 0.8 nM [^3H]-N-methylhistamine plus/minus test compounds for 45 minutes at 25° C. and harvested by rapid filtration over GF/C glass fiber filters (pretreated with 0.3% polyethylenimine) followed by four washes with ice cold buffer. Filters were dried, added to 4 mL scintillation cocktail and then counted on a liquid scintillation counter. Non-specific binding was defined with 10 μM histamine.

T1 sequence (Q9Y5N1 whole entry): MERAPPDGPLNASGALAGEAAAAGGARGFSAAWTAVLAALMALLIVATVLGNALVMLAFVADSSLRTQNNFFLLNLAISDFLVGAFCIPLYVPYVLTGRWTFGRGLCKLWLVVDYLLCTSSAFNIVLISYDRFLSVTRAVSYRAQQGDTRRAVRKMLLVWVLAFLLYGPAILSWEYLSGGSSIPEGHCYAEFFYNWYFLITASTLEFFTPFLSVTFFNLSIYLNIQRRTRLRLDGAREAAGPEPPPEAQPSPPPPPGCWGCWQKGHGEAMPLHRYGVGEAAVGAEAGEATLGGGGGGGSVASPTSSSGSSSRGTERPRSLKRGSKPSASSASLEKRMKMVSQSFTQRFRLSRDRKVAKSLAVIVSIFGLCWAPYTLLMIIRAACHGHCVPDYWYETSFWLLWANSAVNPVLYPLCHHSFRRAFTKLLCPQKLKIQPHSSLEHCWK

Ki [nM] | Structure (SMILES)
500 | CN(C)CCCOc1ccc(-c2cc3ccccc3[nH]2)cc1 [Example 8, 2-[4-[3-Dimethylaminopropoxy]phenyl] 1H-indole]
107 | CN1CCC(Oc2ccc(-c3cc4ccccc4n3S(C)(=O)=O)cc2)CC1 [Example 5, 2-[4-[1-(methyl)-4-piperidinyl]oxyphenyl]-1-(methylsulfonyl)-1H-indole]
120 | CN(C)CCCOc1ccc(-c2cc3ccccc3n2S(C)(=O)=O)cc1 [Example 7, 2-[4-[3-Dimethylaminopropoxy]phenyl]-1-(methylsulfonyl)-1H-indole]
77 | CN1CCCC1CCOc1ccc(-c2cc3ccccc3n2S(C)(=O)=O)cc1 (centres unmarked) [Example 3, 2-[4-[2-[1-(methyl)-2-pyrrolidinyl]ethoxy]phenyl)-1-(methylsulfonyl)-1H-indole]
369 | CCN(CC)CCOc1ccc(-c2cc3ccccc3n2S(C)(=O)=O)cc1 [Example 10, 2-[4-[2-Diethylaminoethoxy]phenyl]-1-(methylsulfonyl)-1H-indole]
5000 | CS(=O)(=O)n1c(-c2ccc(OCc3ccncc3)cc2)cc2ccccc21 [Example 9, 2-[4-[4-Pyridinyl]methoxyphenyl]-1-(methylsulfonyl)-1H-indole]
7 | CS(=O)(=O)n1c(-c2ccc(OCCCN3CCCCC3)cc2)cc2ccccc21 [Example 1, 2-[4-[3-Piperidinopropoxy]phenyl)-1-(methylsulfonyl)-1H-indole]
390 | CN1CCC(Oc2ccc(-c3cc4ccccc4[nH]3)cc2)CC1 [Example 6, 2-[4-[1-(methyl)-4-piperidinyl]oxyphenyl] 1H-indole]
33 | CS(=O)(=O)n1c(-c2cccc(OCCCN3CCCCC3)c2)cc2ccccc21 [Example 15, 2-[3-[3-Piperidinopropoxy]phenyl)-1-(methylsulfonyl)-1H-indole]
3000 | CN1CCN(CCCOc2ccc(-c3cc4cc(Cl)ccc4n3S(C)(=O)=O)cc2)CC1 [Example 17]
523 | CCN(CC)CCOc1ccc(-c2cc3ccccc3[nH]2)cc1 [Example 11, 2-[4-[2-Diethylaminoethoxy]phenyl]-1H-indole]
2000 | CN1CCN(CCCOc2ccc(-c3cc4ccccc4[nH]3)cc2)CC1 [Example 16, 2-(4-(3-(4-Methylpiperazino)propoxy)phenyl)indole]
100 | CN1CCCC1CCOc1ccc(-c2cc3ccccc3[nH]2)cc1 (centres unmarked) [Example 4, 2-[4-[2-[1-(methyl)-2-pyrrolidinyl]ethoxy]phenyl)-1H-indole]
48 | c1ccc2[nH]c(-c3ccc(OCCCN4CCCCC4)cc3)cc2c1 [Example 2, 2-[4-(3-Piperidinopropoxy]phenyl)-1H-indole]
